Blank lines part the entries; values can stand above or below the molecule they belong to.
Assays:
[1] = Amorphous or crystalline state by powder X-ray diffraction (XRPD); assay type: physicochemical; settings: for XRPD 1 week 40/75 open: 1 week 40° C. 75% RH open; for XRPD initial: freshly prepared
Experimental: Amorphous or crystalline state of freshly prepared spray dried dispersions described in Example 2 was assessed by Powder X-ray diffraction (XRPD). The same analysis was repeated after 1 week storage at 40° C. and 75% relative humidity in open conditions. XRPD patterns were obtained with Rigaku MiniFlex 600 X-Ray diffractometer operating with a copper anode ([…]; Kα2=1.54439 Å), generator set at 45 kV and 15 mA, in 2-theta range 3-40° 2θ, scanned at a rate of 2.5° 2θ per minute in continuous scanning mode, and using a D/teX Ultra high speed detector.

[2] = Glass transition temperature (Tg) by modulated DSC; assay type: physicochemical
Experimental: To also evaluate the physical stability of prepared ASDs, glass transition temperature (Tg) was determined at two relative humidity (RH) conditions (<5% and 75% RH) by modulated differential scanning calorimetry (m-DSC).
DSC curves were recorded using a TA Instruments Q2000 differential scanning calorimeter. Samples were heated under nitrogen flow from 0 to 200° C. at 2.5° C.±1.5° C./min in non-hermetically sealed pan for <5% RH analysis or from 0 to 130° C. at 2.5° C.±1.5° C./80 sec in hermetically sealed pan for 75% RH analysis.

[3] = Chemical stability: impurities by HPLC, initial and after 1 week 40° C./75% RH; assay type: physicochemical
Experimental: After a secondary drying overnight at 40° C. 15% RH in a convection tray dryer, the different ASD were characterized for physical stability (XRPD, Tg versus Relative humidity), chemical stability (impurity by HPLC after 1 week 40° C./75% RH) and in vitro dissolution.
Purity of each batch of ASD was tested by HPLC analysis on sample just after preparation and after one week storage in accelerated stability conditions: 40° C./75% RH open or closed. In closed conditions, ASDs were placed in closed bottles (heat induction seal) containing 1 g SORB-IT desiccant canister.
HPLC-analysis was performed using an Agilent 1100 or 1200 system with binary or quaternary pump, a diode array detector, a refrigerated autosampler, and column oven. Data analysis was performed using Empower 3 software. The column used was Zorbax Bonus RP 4.6×150 mm (3.5 μm). Acetonitrile/20 mM Potassium phosphate buffer pH 3.0 was used as mobile phase with a gradient concentration at a flow rate of 1.0 mL/min; UV detection was used at a wavelength of 220 nm.

[4] = Non-sink in vitro dissolution, micro-centrifuge method; assay type: physicochemical; settings: PBS pH 6.5 with 0.5 wt % SIF; for Dissolution C90 min / Dissolution C20 h: 37° C., theoretical maximum 1000 μg/mL; for Dissolution C90 min: 90 min; for Dissolution C20 h: 1200 min
Experimental: Dissolution of spray dried materials of belinostat has been tested in vitro, in non-sink conditions, in order to evaluate the ability of formulations to achieve supersaturation and sustainability of supersaturation relative to crystalline drug.
Dissolution was assessed using micro-centrifuge method (Curatolo et al. Pharm Res 2009:26(6):1419-1431). Micro-centrifuge dissolution method consisted of introducing a 1.8 mg equivalent belinostat as ASD into an empty micro-centrifuge tube and add 1.8 mL total volume dissolution media (PBS pH 6.5 with 0.5 wt % Simulated Intestinal Fluid) to achieve a theoretical maximum belinostat concentration in solution of 1000 μg/mL. For some formulations (marked with* in Table 2), ASDs were first exposed in pH 2.0 gastric media at 2000 μg/mL for 30 min before to be transferred to the PBS pH 6.5 with 0.5 wt % Simulated Intestinal Fluid at a final theoretical maximum belinostat concentration in solution of 1000 μg/mL. Tubes were placed at 37° C. Aliquot (50 μL) were taken from supernatant after centrifugation 15 800 g for 1 min at each time point (5, 10, 20, 45, 90 and 1200 minutes). Between each time point, solids in the centrifuge tube were resuspended by mixing the sample continuously on the vortex mixer for 30 s and the tube was placed back at 37° C. Aliquot samples were diluted using acetonitrile and drug concentration was determined by HPLC.

[5] = above pH 8.5; cited from earlier work
[6] = cited from earlier work
[7] = vorinostat: phase I trial; cited from earlier work
[8] = cited from earlier work; remark: listed apart in the source
[9] = 1 week 40° C./75% RH closed, desiccant

- XRPD 1 week 40/75 open [1]: Crystalline
- XRPD initial [1]: Partially crystalline
- physical state upon storage (in words) ([1]; upon storage): undergoes recrystallization upon storage
- Tg <5% RH ([2]; <5% RH, m-DSC): 53 °C
- glass transition temperature (Tg) ([2]; amorphous belinostat without polymer): about 53 °C
- Bel Acid, 1 week 40/75 closed [3, 9]: Bel Acid 0.10 area %
- Bel Dimer, 1 week 40/75 closed [3, 9]: Bel Dimer 1.34 area %
- Total imp, 1 week 40/75 closed [3, 9]: Total imp 1.49 area %
- Bel Acid, 1 week 40/75 open ([3]; 1 week 40° C./75% RH open): Bel Acid 0.10 area %
- Bel Dimer, 1 week 40/75 open ([3]; 1 week 40° C./75% RH open): Bel Dimer 0.25 area %
- Observation on storage 1 week 40/75 open ([3]; 1 week 40° C./75% RH open): Recrystallization
- Total imp, 1 week 40/75 open ([3]; 1 week 40° C./75% RH open): Total imp 0.42 area %
- Bel Acid, Initial ([3]; just after preparation): Bel Acid 0.05 area %
- Bel Dimer, Initial ([3]; just after preparation): Bel Dimer 0.48 area %
- Total imp, Initial ([3]; just after preparation): Total imp 0.59 area %
- Observation during dissolution [4]: Recrystallization
- Dissolution C90 min [4]: 363 µg/mL
- Dissolution C20 h [4]: 387 µg/mL
Structure (SMILES): O=C(/C=C/c1cccc(S(=O)(=O)Nc2ccccc2)c1)NO [Formulation 2]

- XRPD 1 week 40/75 open [1]: Crystalline
- XRPD initial [1]: Crystalline
- Bel Acid, Initial ([3]; just after preparation): Bel Acid <0.05 area %
- Total imp, Initial ([3]; just after preparation): Total imp <0.05 area %
- Dissolution C90 min [4]: 270 µg/mL
- Dissolution C20 h [4]: 310 µg/mL
Structure (SMILES): O=C(/C=C/c1cccc(S(=O)(=O)Nc2ccccc2)c1)NO [Formulation 1]

Structure (SMILES): O=C(/C=C/c1cccc(S(=O)(=O)Nc2ccccc2)c1)NO [belinostat, (2E)-N-hydroxy-3-[3-(phenylsulfamoyl)phenyl]prop-2-enamide]
- chemical stability in liquid solution [5]: poor chemical stability

Structure (SMILES): CC(O)C(=O)O.Cc1[nH]c2ccccc2c1CCNCc1ccc(/C=C/C(=O)NO)cc1 [panobinostat lactate]
- aqueous solubility, maximum ([6]; pH 2 or 3): ~5000 µg/mL
- aqueous solubility at neutral pH ([6]; pH 6.8): 0.3 mg/mL
- aqueous solubility ([6]; pH 7.6): 70 µg/mL
- solubility in water (in words) ([6]; water): slightly soluble in water
- absolute oral bioavailability [7]: approximately 21%
- permeability (in words) [8]: highly permeable

Structure (SMILES): O=C(CCCCCCC(=O)Nc1ccccc1)NO [Vorinostat]
- absolute oral bioavailability [7]: 43%
- permeability (in words) [8]: moderate permeability

— US11266614B2, “Oral formulations of belinostat” (ONXEO, priority 2017, dated 2022)
